Test results: patent US20040009890A1, “Broad spectrum inhibitors” (priority 2002, published 2004)

Test system: wild type and multidrug resistant HIV strains
Assay: Antiviral activity against wild type HIV and multidrug resistant patient isolates (PHA-PBMC, p24 Gag production)
Assay type: cell-based
Settings: for antiviral activity against HIV derived from patient isolates that contain multiple mutations, compared with wild type HIV strains: patients never exposed to the tested compounds; for antiviral potency against multidrug resistant HIV strains compared with wild type: wild type vs multidrug resistant HIV strains
From the text: IC50 's for broad spectrum protease inhibitors can be measured against wild type HIV and clinically isolated mutant HIV isolates, utilizing the PHA-PBMC exposed to HIV-1 (50 TCID50 dose/[…] PBMC) as target cells and using the inhibition of p24 Gag protein production as an endpoint. The amounts of p24 antigen produced by the cells can be determined on day 7 in culture using a commercially available radioimmunoassay kit.

Structure (SMILES)	antiviral activity against HIV derived from patient isolates that contain multiple mutations, compared with wild type HIV strains	antiviral potency against multidrug resistant HIV strains compared with wild type
COc1ccc(S(=O)(=O)N(CC(C)C)C[C@@H](O)[C@H](Cc2ccccc2)NC(=O)O[C@H]2CO[C@H]3OCC[C@H]32)cc1 [Compound 1]	equivalent to their activity against wild type HIV strains	equally effective against wild type and mutant HIV strains
CC(C)CN(C[C@@H](O)[C@H](Cc1ccccc1)NC(=O)O[C@H]1CCOC1)S(=O)(=O)c1ccc(N)cc1 [Compound 2, Amprenavir]	much less effective against the same mutant viruses	dramatically less potent against the multidrug resistant strains of HIV
CC(C)c1nc(CN(C)C(=O)N[C@H](C(=O)N[C@@H](Cc2ccccc2)C[C@H](O)[C@H](Cc2ccccc2)NC(=O)OCc2cncs2)C(C)C)cs1 [Compound 5, Ritonavir]	–	dramatically less potent against the multidrug resistant strains of HIV
Cc1c(O)cccc1C(=O)N[C@@H](CSc1ccccc1)[C@H](O)CN1C[C@H]2CCCC[C@H]2C[C@H]1C(=O)NC(C)(C)C [Compound 7, Nelfinavir]	–	dramatically less potent against the multidrug resistant strains of HIV
CC(C)(C)NC(=O)[C@@H]1C[C@@H]2CCCC[C@@H]2CN1C[C@@H](O)[C@H](Cc1ccccc1)NC(=O)[C@H](CC(N)=O)NC(=O)c1ccc2ccccc2n1 [Compound 4, Saquinavir]	–	dramatically less potent against the multidrug resistant strains of HIV
CC(C)(C)NC(=O)[C@@H]1CN(Cc2cccnc2)CCN1C[C@@H](O)C[C@@H](Cc1ccccc1)C(=O)N[C@H]1c2ccccc2C[C@H]1O [Compound 6, Indinavir]	–	dramatically less potent against the multidrug resistant strains of HIV
